Measured values taken from US7521444B2, “Compounds for the treatment of hepatitis C” (Bristol-Myers Squibb Company, priority 2007, dated 2009).

Key:
[1] = biological target: T1, HCV NS5B (Hepatitis C virus genotype 1b, UniProt Q9WMX2); test: HCV NS5B RdRp enzyme assay (standard or modified); assay type: biochemical; conditions: HCV NS5B RdRp genotype 1b enzyme; standard or modified assay not stated
T1 construct: The protein was expressed with an 18 amino acid C-terminal truncation to enhance the solubility; made in house; host or cells: E. coli BL21(DE3), pET21a
T1 sequence (Q9WMX2 2420-2992): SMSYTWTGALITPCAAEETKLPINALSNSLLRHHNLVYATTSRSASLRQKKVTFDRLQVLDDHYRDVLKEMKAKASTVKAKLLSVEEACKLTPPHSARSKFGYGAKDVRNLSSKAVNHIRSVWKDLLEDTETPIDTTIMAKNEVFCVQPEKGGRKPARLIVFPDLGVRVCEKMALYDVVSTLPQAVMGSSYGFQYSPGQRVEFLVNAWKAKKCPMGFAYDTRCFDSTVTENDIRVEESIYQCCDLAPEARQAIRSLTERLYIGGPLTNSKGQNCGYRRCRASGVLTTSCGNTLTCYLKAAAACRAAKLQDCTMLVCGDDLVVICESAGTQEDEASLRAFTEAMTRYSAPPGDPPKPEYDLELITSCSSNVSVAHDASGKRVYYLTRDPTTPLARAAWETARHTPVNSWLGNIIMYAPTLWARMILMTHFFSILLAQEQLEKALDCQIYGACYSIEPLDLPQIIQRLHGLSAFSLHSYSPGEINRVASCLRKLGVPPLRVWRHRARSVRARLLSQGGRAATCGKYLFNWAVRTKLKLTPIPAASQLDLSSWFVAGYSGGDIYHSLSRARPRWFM
Protocol: HCV NS5B RdRp cloning, expression, and purification. The cDNA encoding the NS5B protein of HCV, genotype 1b, was cloned into the pET21a expression vector. The protein was expressed with an 18 amino acid C-terminal truncation to enhance the solubility. The E. coli competent cell line BL21(DE3) was used for expression of the protein. Cultures were grown at 37° C. for ˜4 hours until the cultures reached an optical density of 2.0 at 600 nm. The cultures were cooled to 20° C. and induced with 1 mM IPTG. Fresh ampicillin was added to a final concentration of 50 μg/ml and the cells were grown overnight at 20° C.
Cell pellets (3 L) were lysed for purification to yield 15-24 mgs of purified NS5B. The lysis buffer consisted of 20 mM Tris-HCl, pH 7.4, 500 mM NaCl, 0.5% triton X-100, 1 mM DTT, 1 mM EDTA, 20% glycerol, 0.5 mg/ml lysozyme, 10 mM MgCl2, 15 ug/ml deoxyribonuclease I, and Complete TM protease inhibitor tablets (Roche). After addition of the lysis buffer, frozen cell pellets were resuspended using a tissue homogenizer. To reduce the viscosity of the sample, aliquots of the lysate were sonicated on ice using a microtip attached to a Branson sonicator. The sonicated lysate was centrifuged at 100,000×g for 1 hr at 4° C. and filtered through a 0.2 μm filter unit (Corning).
The protein was purified using two sequential chromatography steps: Heparin sepharose CL-6B and polyU sepharose 4B (Pharmacia). The chromatography buffers were identical to the lysis buffer but contained no lysozyme, deoxyribonuclease I, MgCl2 or protease inhibitor and the NaCl concentration of the buffer was adjusted according to the requirements for charging the protein onto the column. Each column was eluted with a NaCl gradient which varied in length from 5-50 column volumes depending on the column type. After the final chromatography step, the resulting purity of the enzyme is >90% based on SDS-PAGE analysis. The enzyme was aliquoted and stored at −80° C.
Standard HCV NS5B RdRp enzyme assay. HCV RdRp genotype 1b assays were run in a final volume of 60 μl in 96 well plates (Corning 3600). The assay buffer is composed of 20 mM Hepes, pH 7.5, 2.5 mM KCl, 2.5 mM MgCl2, 1 mM DTT, 1.6 U RNAse inhibitor (Promega N2515), 0.01 mg/ml BSA (Sigma B6917), and 2% glycerol. All compounds were serially diluted (3-fold) in DMSO and diluted further in water such that the final concentration of DMSO in the assay was 2%. HCV RdRp genotype 1b enzyme was used at a final concentration of 28 nM. A polyA template was used at 6 nM, and a biotinylated oligo-dT12 primer was used at 180 nM final concentration. Template was obtained commercially (Amersham 27-4110). Biotinylated primer was prepared by Sigma Genosys. 3H-UTP was used at 0.6 μCi (0.29 μM total UTP). Reactions were initiated by the addition of enzyme, incubated at 30° C. for 60 min, and stopped by adding 25 μl of 50 mM EDTA containing SPA beads (4 μg/μl, Amersham RPNQ 0007). Plates were read on a Packard Top Count NXT after >1 hr incubation at room temperature.
Modified HCV NS5B RdRp enzyme assay. A modified enzyme assay was performed essentially as described for the standard enzyme assay except for the following: The biotinylated oligo dT12 primer was precaptured on streptavidin-coated SPA beads by mixing primer and beads in assay buffer and incubating at room temperature for one hour. Unbound primer was removed after centrifugation. The primer-bound beads were resuspended in 20 mM Hepes buffer, pH 7.5 and used in the assay at final concentrations of 20 nM primer and 0.67 μg/μl beads. Order of addition in the assay: enzyme (1.75 nM) was added to diluted compound followed by the addition of a mixture of template (0.36 nM), 3H-UTP (0.6 μCi, 0.29 μM), and primer-bound beads, to initiate the reaction; concentrations given are final. Reactions were allowed to proceed for 4 hours at 30° C.
IC50 values for compounds were determined using seven different [I]. […]

[2] = test system: HCV replicon cells; test: HCV replicon FRET / luciferase assay; assay type: cell-based; conditions: 50% reduction in FRET or luciferase activity
Protocol: FRET Assay Preparation. The HCV FRET screening assay was performed in 96-well cell culture plates. The FRET peptide (Anaspec, Inc.) (Taliani et al., Anal. Biochem. 1996, 240, 60-67) contains a fluorescence donor, EDANS, near one end of the peptide and an acceptor, DABCYL, near the other end. The fluorescence of the peptide is quenched by […] resonance energy transfer (RET) between the donor and the acceptor, but as the NS3 protease cleaves the peptide the products are released from RET quenching and the fluorescence of the donor becomes apparent. The assay reagent was made as follows: 5× cell Luciferase cell culture lysis reagent from Promega (#E153A) diluted to 1× with dH2O, NaCl added to 150 mM final, the FRET peptide diluted to 20 μM final from a 2 mM stock.
To prepare plates, HCV replicon cells, with or without a Renilla luciferase reporter gene, were trypsinized and plated in a 96-well plate with titrated test compounds added in columns 3 through 12; columns 1 and 2 contained a control compound (HCV control inhibitor), and the bottom row contained cells with DMSO only. The plates were then placed in a CO2 incubator at 37° C.
Assays. Subsequent to addition of the test compounds described above (FRET Assay Preparation), at various times the plate was removed and Alamar blue solution (Trek Diagnostics, #00-100) was added to measure cellular toxicity. After reading in a Cytoflour 4000 instrument (PE Biosystems), plates were rinsed with PBS and then used for FRET assay by the addition of 30 ul of the FRET peptide assay reagent described above (FRET Assay Preparation) per well. The plate was then placed into the Cytoflour 4000 instrument which had been set to 340 excite/490 emission, automatic mode for up to 20 cycles and the plate read in a kinetic mode. Typically, the signal to noise using an endpoint analysis after the reads was at least three-fold. Alternatively, after Alamar blue reading, plates were rinsed with PBS, then used for luciferase assay using the Promega Dual-Glo Luciferase Assay System or the Promega EnduRen Live Cell Substrate assay.
Compound analysis was performed by quantification of the relative HCV replicon inhibition and the relative cytotoxicity values. To calculate cytoxicity values, the average Alamar Blue fluorescence signals from the control wells were set as 100% non-toxic. The individual signals in each of the compound test wells were then divided by the average control signal and multiplied by 100% to determine […]. To calculate the HCV replicon inhibition values, an average background value was obtained from the two wells containing the highest amount of HCV control inhibitor at the end of the assay period. These numbers were similar to those obtained from naïve Huh-7 cells. The background numbers were then subtracted from the average signal obtained from the control wells and this number was used as 100% activity. The individual signals in each of the compound test wells were then divided by the averaged control values after background subtraction and multiplied by 100% to determine percent activity. EC50 values were calculated as the concentration which caused a 50% reduction in FRET or luciferase activity. The two numbers generated for the compound plate, percent cytoxicity and percent activity, were used to determine compounds of interest for further analysis.

## COc1ccc2c(c1)[C@@H]1C[C@]1(C(=O)N1CC3CCCN(C(C)=O)C3C1)Cn1c-2c(C2CCCCC2)c2ccc(C(=O)NS(=O)(=O)N(C)C)cc21 (some centres unmarked) [drawing 73]
[1]
  IC50: 0.00458 to 0.5 µM
[2]
  EC50: 0.00458 to 0.5 µM
